#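 Where inhibition never reached the appropriate level, the endpoint shown equals the highest concentration tested. Otherwise, values were interpolated linearly from a five-concentration, 48-hour dose response in 96-well plates. GI50: concentration for 50% inhibition of growth. TGI marks complete inhibition of growth.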
# Legend:
# Assay in all cases: inhibition of tumour cell growth, NCI panel, 48 h
# IGROV1 ovarian = tested on: IGROV1 ovarian
# KM12 colon = tested on: KM12 colon
# UACC-257 melanoma = tested on: UACC-257 melanoma
# NCI-H23 lung = tested on: NCI-H23 lung
# SR leukemia = tested on: SR leukemia
# HOP-92 NSCLC = tested on: HOP-92 NSCLC
# UACC-62 melanoma = tested on: UACC-62 melanoma
# 786-0 renal = tested on: 786-0 renal
# HOP-62 NSCLC = tested on: HOP-62 NSCLC
# NCI/ADR-RES ovarian = tested on: NCI/ADR-RES ovarian
Compound,TGI (IGROV1 ovarian),TGI (KM12 colon),TGI (UACC-257 melanoma),TGI (NCI-H23 lung),TGI (SR leukemia),TGI (HOP-92 NSCLC),TGI (UACC-62 melanoma),TGI (786-0 renal),TGI (HOP-62 NSCLC),GI50 (KM12 colon),GI50 (HOP-62 NSCLC),GI50 (NCI-H23 lung),GI50 (SR leukemia),GI50 (UACC-62 melanoma),GI50 (786-0 renal),GI50 (NCI/ADR-RES ovarian) [µM],TGI (NCI/ADR-RES ovarian) [µM],GI50 (IGROV1 ovarian),GI50 (UACC-257 melanoma),GI50 (HOP-92 NSCLC) [ng/mL]
C/C(=N\NC(=S)N(C)C)c1ncc[nH]1,7.71 µM,> 100 µM,7.52 µM,5.07 µM,7.52 µM,7.85 µM,7.67 µM,5.67 µM,–,–,–,–,–,–,–,–,–,–,–,–
CC(C)=CC(=O)Cc1nc2ccccc2[nH]c1=O,> 100 µM,> 100 µM,> 100 µM,> 100 µM,> 100 µM,68 µM,> 100 µM,> 100 µM,> 100 µM,–,–,–,–,–,–,–,–,–,–,–
COc1ccc(Cl)cc1N1C(=O)C(Cl)=C(Nc2cccc(O)c2)C1=O,–,> 100 µM,–,41.4 µM,54.5 µM,–,27.9 µM,60.2 µM,74.8 µM,28.7 µM,23.7 µM,16.6 µM,13.8 µM,12.3 µM,21.1 µM,27.2,95.4,–,–,–
COc1ccc2c(c1)[nH]c(=O)c1c3cccnc3cn21,14.6 µM,17.5 µM,25.5 µM,35.3 µM,5.75 µM,–,19.3 µM,15.8 µM,37 µM,0.0377 µM,0.0666 µM,0.131 µM,0.0271 µM,0.0431 µM,0.066 µM,0.0231,0.0571,0.0627 µM,0.677 µM,–
CCCCCCCCCCCCCCCC(=O)NC1CCc2cc(O)c(O)c(O)c2-c2ccc(SC)c(=O)cc21 (stereo not drawn),25.3 µM,20.3 µM,26.7 µM,16.6 µM,> 31 µM,8.28 µM,10.9 µM,33.3 µM,25.4 µM,–,–,–,–,–,–,–,–,–,–,–
CC1CCC2(OC1)OC1CC3C4CC=C5CC(OC6OC(CO)C(OC7OC(C)C(OC8OC(C)C(O)C(O)C8O)C(O)C7O)C(O)C6OC6OC(C)C(O)C(O)C6O)CCC5(C)C4CCC3(C)C1C2C (stereo not drawn),2.59 µM,1.43 µM,2.02 µM,3.13 µM,–,1.9 µM,1.51 µM,2.29 µM,> 100 µM,–,–,–,–,–,–,–,–,–,–,–
CCN=C1NN=C(c2ccccc2)c2cc(Cl)ccc2N1,70 µM,31.1 µM,34.3 µM,64.6 µM,–,47.5 µM,31.7 µM,34.1 µM,48.2 µM,–,–,–,–,–,–,–,–,–,–,–
COc1cc2c(cc1OC)-c1c(cnn1C1OC(COC(C)=O)C(OC(C)=O)C(OC(C)=O)C1OC(C)=O)CC2 (stereo not drawn),> 100 µM,> 100 µM,> 100 µM,> 100 µM,> 28.7 µM,> 100 µM,> 100 µM,> 100 µM,> 100 µM,–,–,–,–,–,–,–,–,–,–,–
Cc1cccc(C(C)O)n1 (stereo not drawn),> 100 µM,> 100 µM,> 100 µM,> 100 µM,> 100 µM,–,> 100 µM,> 100 µM,> 100 µM,–,–,–,–,–,–,–,> 100,–,–,–
C/C(=N\NC(N)=S)c1ccc2c(c1)OCO2,> 100 µM,> 100 µM,> 100 µM,> 100 µM,> 100 µM,> 100 µM,> 100 µM,> 100 µM,> 100 µM,–,–,–,–,–,–,–,–,–,–,–
CCOC(=O)/C(C#N)=C(O)/C(=C/c1ccccc1Cl)NC(=O)c1ccccc1,> 100 µM,> 100 µM,> 100 µM,> 100 µM,–,> 100 µM,> 100 µM,> 100 µM,> 100 µM,–,–,–,–,–,–,–,–,–,–,–
C#Cc1cccc(NC(=O)Nc2ccc(NC(=O)CCl)cc2)c1,25.5 µM,63.8 µM,> 82.5 µM,36 µM,26.7 µM,–,61 µM,23.7 µM,> 82.5 µM,18.9 µM,19 µM,15.4 µM,9.79 µM,17.4 µM,12.5 µM,23.3,70,12.1 µM,> 82.5 µM,–
O=C1CCC(c2nc3ccccc3o2)C(=O)N1 (stereo not drawn),> 100 µM,> 100 µM,> 100 µM,> 100 µM,> 100 µM,> 100 µM,> 100 µM,> 100 µM,> 100 µM,–,–,–,–,–,–,–,–,–,–,–
OCCN(CO)CN(CN(CO)CCO)c1nc(N(CN(CO)CCO)CN(CO)CCO)nc(N(CN(CO)CCO)CN(CO)CCO)n1,5.46 ng/mL,2.8 ng/mL,3.21 ng/mL,5.24 ng/mL,2.62 ng/mL,3.6 ng/mL,3.02 ng/mL,4.6 ng/mL,4.38 ng/mL,1.21 ng/mL,1.47 ng/mL,1.57 ng/mL,0.742 ng/mL,1.26 ng/mL,1.49 ng/mL,–,–,1.75 ng/mL,1.42 ng/mL,1.56
O=C(Nc1ccc(C(F)(F)F)cc1[N+](=O)[O-])C(=O)C(C(=O)c1ccc2ccccc2c1)C1OC(=O)c2ccccc21 (stereo not drawn),> 66.3 µM,24.4 µM,24 µM,12.1 µM,> 100 µM,4 µM,20.4 µM,19.5 µM,14.8 µM,–,–,–,–,–,–,–,–,–,–,–
O=C(CC(=O)Nc1ccc(Cl)cc1)NNCC(=O)Nc1nc(-c2ccccc2)cs1,> 100 µM,> 100 µM,–,> 100 µM,–,–,> 100 µM,> 100 µM,> 100 µM,–,–,–,–,–,–,–,–,–,–,–
O=[N+]([O-])c1ccc(Cc2nc3ccccc3s2)cc1,> 100 µM,> 100 µM,> 100 µM,> 100 µM,> 100 µM,> 100 µM,> 100 µM,> 100 µM,> 100 µM,–,–,–,–,–,–,–,–,–,–,–
CCOC(=O)C1CCC/C1=N\N=C(N)N (stereo not drawn) (tested in a mixture with another compound),> 100 µM,> 100 µM,> 100 µM,> 100 µM,> 100 µM,–,> 100 µM,> 100 µM,> 100 µM,–,–,–,–,–,–,–,> 100,–,–,–
Cc1cccc(C(C)(C)C)c1NC(=O)CC1C(=O)Nc2ccccc2S1=O (stereo not drawn),–,> 100 µM,> 100 µM,67.6 µM,87.8 µM,> 100 µM,–,> 100 µM,> 100 µM,–,–,–,–,–,–,–,–,–,–,–
Clc1nc(Cl)c2ncn(C/C=C\Cn3cnc4c(Cl)nc(Cl)nc43)c2n1,2.94 µM,3.2 µM,12.1 µM,5.11 µM,–,–,4.19 µM,6.88 µM,4.71 µM,1.71 µM,1.74 µM,2.09 µM,–,2.04 µM,2.6 µM,2.46,8.01,1.17 µM,2.56 µM,–
N#CCCc1nc2ccc(Br)cc2c(=O)n1-c1ccc(O)c([N+](=O)[O-])c1,47.7 µM,34.5 µM,74.3 µM,42 µM,–,51.6 µM,38.5 µM,43.2 µM,> 100 µM,–,–,–,–,–,–,–,–,–,–,–
